What was measured:
Experiment in all cases: relative viability (nuclei count vs DMSO), 5 days (fraction); higher = more cells survive
GW-2580 = compound: COC1=CC=C(C=C1)COC2=C(C=C(C=C2)CC3=CN=C(N=C3N)N)OC [GW-2580]
Summary of the method: (§1)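 Viability here means nuclei in treated wells divided by nuclei in vehicle wells, reported as the median across plates. Only plates with control CV below 25% and at least one doubling passed. Lung cancer cell lines in 1536-well plates were exposed to five √10-spaced library-drug doses for 5 days and counted from 4× Hoechst images in MetaXpress.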

Fedratinib = compound: Cc1cnc(Nc2ccc(OCCN3CCCC3)cc2)nc1Nc1cccc(S(=O)(=O)NC(C)(C)C)c1 [Fedratinib]
Summary of the method: as §1

GW-2580 + Navitoclax = compound: COC1=CC=C(C=C1)COC2=C(C=C(C=C2)CC3=CN=C(N=C3N)N)OC [GW-2580] + CC1(C)CCC(c2ccc(Cl)cc2)=C(CN2CCN(c3ccc(C(=O)NS(=O)(=O)c4ccc(N[C@H](CCN5CCOCC5)CSc5ccccc5)c(S(=O)(=O)C(F)(F)F)c4)cc3)CC2)C1 [Navitoclax] (partner 0.5 µM)
Summary of the method: (§2)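 Cells from lung cancer lines were seeded into 1536-well plates and, one day later, dosed by pin tool. Treatments were either a single drug or a fixed dose of an anchor drug with five library-drug doses (not always all listed) in √10 steps. After 5 days, nuclei were stained in a one-step fixation (final 0.05% Triton X-100, 1% formaldehyde, 1 ug/ml Hoechst) and counted on 4× images, and relative viability is the treated-to-vehicle nuclei ratio, as the median of duplicate plates.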

Fedratinib + Trametinib = compound: Cc1cnc(Nc2ccc(OCCN3CCCC3)cc2)nc1Nc1cccc(S(=O)(=O)NC(C)(C)C)c1 [Fedratinib] + CC(=O)Nc1cccc(-n2c(=O)n(C3CC3)c(=O)c3c(Nc4ccc(I)cc4F)n(C)c(=O)c(C)c32)c1 [Trametinib] (partner 0.02 µM)
Summary of the method: as §2

GW-2580 + Foretinib = compound: COC1=CC=C(C=C1)COC2=C(C=C(C=C2)CC3=CN=C(N=C3N)N)OC [GW-2580] + COc1cc2c(Oc3ccc(NC(=O)C4(C(=O)Nc5ccc(F)cc5)CC4)cc3F)ccnc2cc1OCCCN1CCOCC1 [Foretinib] (partner 0.25 µM)
Summary of the method: as §2

Cell Line	relative viability (GW-2580; 0.08 µM)	relative viability (GW-2580; 0.8 µM)	relative viability (GW-2580; 2.53 µM)	relative viability (GW-2580; 8 µM)	relative viability (Fedratinib; 0.1 µM)	relative viability (Fedratinib; 0.3162 µM)	relative viability (Fedratinib; 1 µM)	relative viability (GW-2580 + Navitoclax; first compound 0.08 µM)	relative viability (GW-2580 + Navitoclax; first compound 0.8 µM)	relative viability (GW-2580 + Navitoclax; first compound 2.53 µM)	relative viability (GW-2580 + Navitoclax; first compound 8 µM)	relative viability (Fedratinib + Trametinib; first compound 0.1 µM)	relative viability (Fedratinib + Trametinib; first compound 0.3162 µM)	relative viability (Fedratinib + Trametinib; first compound 1 µM)	relative viability (GW-2580 + Foretinib; first compound 0.08 µM)	relative viability (GW-2580 + Foretinib; first compound 0.8 µM)	relative viability (GW-2580 + Foretinib; first compound 2.53 µM)	relative viability (GW-2580 + Foretinib; first compound 8 µM)
PC-14	1.07	1.19	0.966	0.969	0.986	1.09	0.906	1.07	1.05	0.905	1.05	0.692	0.871	0.554	1.08	1.07	0.924	0.936
NCI-H1651	1.06	1.08	0.952	0.977	0.958	0.984	0.945	1.04	1.15	0.95	1.18	0.778	0.826	0.859	0.958	0.804	0.754	0.745
HARA	1.11	1.16	0.951	0.902	0.863	0.903	0.803	1.15	1.18	1.28	0.896	0.521	0.907	0.546	1.06	0.849	1.03	0.676
NCI-H1650	1.08	1.11	0.83	1.05	0.715	1.01	0.748	1.31	1.26	1.1	1.13	0.534	0.545	0.642	1.29	1.43	1.19	1.05
NCI-H1395	0.866	0.979	0.877	0.935	0.784	0.955	0.7	1.08	1.06	1.13	1.11	0.979	0.962	0.814	1.08	0.934	1	0.923
LU99A	0.991	0.875	0.949	0.916	0.969	0.934	0.924	0.887	0.97	0.681	0.729	0.577	0.593	0.477	0.834	0.944	0.724	0.881
NCI-H1355	1.03	1.11	0.837	0.976	1	0.993	0.904	0.984	1.08	0.827	0.944	0.442	0.387	0.412	1.04	1.06	0.841	0.923
HCC-78	0.95	1.21	0.675	0.933	0.87	0.869	0.96	0.879	1.07	0.631	0.801	0.677	0.776	0.938	0.524	0.605	0.513	0.497
HCC-15	1.08	1.19	0.98	1.02	0.869	0.972	0.911	0.751	0.79	0.656	0.712	0.393	0.365	0.357	1.06	1.09	1.01	0.958
EKVX	0.962	1.22	0.81	0.941	1.06	0.952	0.978	0.977	1.03	0.732	0.925	0.333	0.293	0.363	0.971	1.11	0.726	0.779
NCI-H2087	1	1.08	0.942	0.933	1	0.99	0.856	0.956	1.16	0.886	0.88	0.203	0.177	0.213	1.21	1.25	1.2	0.937
LK-2	1.18	0.988	0.742	1.02	1.09	1.03	0.734	0.983	1.09	0.616	1.03	0.799	0.8	0.605	1.62	1.45	1.05	1.2
NCI-H1437	1	1.06	0.926	0.835	0.978	0.982	0.926	1.16	1.15	0.928	0.879	0.492	0.561	0.564	1.38	1.28	1.14	0.91
COR-L23	1.15	1.12	1.03	0.932	0.958	1.04	1.03	1.32	1.17	1.14	1.11	0.576	0.604	0.155	1.12	1.15	1.09	0.882
NCI-H838	1.09	1.05	0.884	1	0.928	0.996	0.8	1.09	1.2	1.03	1.36	0.475	0.525	0.542	1.15	1.14	0.997	1.03
A-427	1.05	1.11	0.86	0.881	0.928	1.02	0.555	1.02	1.1	0.838	0.856	0.633	0.649	0.627	1.1	1.14	0.892	1.01
LCLC-97TM1	0.972	1.07	0.848	1.03	1.05	1.02	0.778	0.443	–	0.369	0.321	0.234	0.202	0.18	1.01	0.961	1.01	0.884

Cell Line	relative viability (GW-2580; 0.08 µM)	relative viability (GW-2580; 0.8 µM)	relative viability (GW-2580; 2.53 µM)	relative viability (GW-2580; 8 µM)	relative viability (Fedratinib; 0.1 µM)	relative viability (Fedratinib; 0.3162 µM)	relative viability (Fedratinib; 1 µM)	relative viability (GW-2580 + Navitoclax; first compound 0.08 µM)	relative viability (GW-2580 + Navitoclax; first compound 0.8 µM)	relative viability (GW-2580 + Navitoclax; first compound 2.53 µM)	relative viability (GW-2580 + Navitoclax; first compound 8 µM)	relative viability (Fedratinib + Trametinib; first compound 0.1 µM)	relative viability (Fedratinib + Trametinib; first compound 0.3162 µM)	relative viability (Fedratinib + Trametinib; first compound 1 µM)	relative viability (GW-2580 + Foretinib; first compound 0.08 µM)	relative viability (GW-2580 + Foretinib; first compound 0.8 µM)	relative viability (GW-2580 + Foretinib; first compound 2.53 µM)	relative viability (GW-2580 + Foretinib; first compound 8 µM)
PC-3 [JPC-3]	1.12	1.14	1.09	0.964	0.987	1.03	0.953	0.807	0.854	0.72	0.779	0.561	0.757	0.655	1.06	1.06	0.948	0.865
BEN	0.949	1.08	0.776	0.905	0.842	0.91	0.831	0.0663	0.486	0.0634	0.0526	0.846	0.945	0.926	0.61	0.731	0.406	0.674
NCI-H1666	0.976	1.38	0.937	0.97	0.859	1.04	0.982	0.946	1.1	0.856	0.69	1	0.824	0.861	0.928	0.936	0.948	0.991
LC-2-ad	1.04	1.14	1.01	0.988	0.983	1.03	0.588	0.544	0.52	0.357	0.498	0.898	0.904	0.933	0.826	0.931	0.991	0.936
SK-LU-1	1.09	1.12	0.826	1.14	1.06	0.906	0.868	0.869	0.85	1.06	1.05	0.498	0.454	0.479	0.823	0.934	0.708	0.816
ChaGo-K-1	0.938	0.985	1.01	0.999	0.953	0.948	0.958	1.04	1.34	0.926	1.01	0.765	0.841	0.873	0.994	0.965	0.924	0.881
COR-L 105	1.01	1.05	0.932	0.908	0.827	1.1	0.664	0.813	0.814	0.72	0.751	0.39	0.442	0.422	1.09	1.19	1.05	0.993
NCI-H1975	1.04	1.12	0.935	0.87	0.933	0.939	0.798	1.2	1.3	1.21	0.98	0.344	0.234	0.304	0.965	1.03	0.939	0.803
NCI-H1993	0.86	1.16	0.764	1.1	0.822	1.03	0.835	0.932	1.14	–	0.948	0.547	0.419	0.421	0.921	0.765	0.686	0.746
RERF-LC-KJ	1.08	1.15	0.921	0.977	1.03	1.04	0.917	0.871	1.04	1.13	0.995	0.787	0.813	0.858	0.896	0.911	0.842	0.765
NCI-H23	1.03	1.11	0.983	0.99	1.01	0.908	0.597	0.77	0.75	0.774	0.87	0.373	0.395	0.306	1.23	1.18	0.887	0.907
HCC-366	0.997	1.06	1.11	1.07	0.997	1.02	0.962	1.27	1.17	1.13	1.11	0.363	0.36	0.257	1	0.879	0.964	0.791
EMC-BAC-2	1.02	1.12	0.643	0.901	1.1	1.01	0.833	1.18	1.39	1.07	1.2	0.931	0.939	0.978	1.13	1.11	1.04	0.865
NCI-H2405	0.99	1.13	0.902	0.936	0.937	0.939	0.834	0.888	0.742	0.928	0.66	0.582	0.584	0.57	1.04	1.08	0.963	0.958
NCI-H1944	1	0.999	0.972	0.886	0.965	1.01	0.909	1.09	1.1	1.03	0.988	0.448	0.422	0.42	0.945	0.886	0.966	0.631
EPLC-272H	0.995	1.15	0.763	0.891	0.921	0.938	0.327	1.18	1.08	1.11	1.11	0.275	0.281	0.278	0.73	0.766	–	0.605
NCI-H1915	1.04	1.02	1.07	0.969	1.03	0.97	0.658	0.858	0.898	0.778	0.837	0.307	0.28	0.275	1.26	0.768	1.12	1.06

Source: the supplement of paper PMC10307832
